Laboratory results published in BindingDB's records for doi:10.1016/j.bioorg.2016.10.002 (Hazara University, 2016).

Legend:
[1] = target: Carboxylic ester hydrolase (Equus caballus, UniProt Q9N1N9); experiment: In vitro AChE and BChE Assay; conditions: pH 8
Method: (§1) The synthesized compounds (each separately) were dissolved in a mixture of DMSO (1 ml) and methanol (9 ml) and then diluted in KH2PO4/K2HPO4 buffer (0.1 M, pH 8.0) to obtain desired concentration. […] The mixture was pre-incubated at 30 °C for 10 min and followed by adding 1 mM ATCI or BTCI and incubated again for 15 min. […] Instead of inhibitor, DMSO was used asnegative control to subtract its effect on activity. All reactions were carried out in triplicate.

Acetylcholinesterase = Acetylcholinesterase (Electrophorus electricus, UniProt O42275); experiment: In vitro AChE and BChE Assay; conditions: pH 8
Acetylcholinesterase, sequence (O42275 whole entry): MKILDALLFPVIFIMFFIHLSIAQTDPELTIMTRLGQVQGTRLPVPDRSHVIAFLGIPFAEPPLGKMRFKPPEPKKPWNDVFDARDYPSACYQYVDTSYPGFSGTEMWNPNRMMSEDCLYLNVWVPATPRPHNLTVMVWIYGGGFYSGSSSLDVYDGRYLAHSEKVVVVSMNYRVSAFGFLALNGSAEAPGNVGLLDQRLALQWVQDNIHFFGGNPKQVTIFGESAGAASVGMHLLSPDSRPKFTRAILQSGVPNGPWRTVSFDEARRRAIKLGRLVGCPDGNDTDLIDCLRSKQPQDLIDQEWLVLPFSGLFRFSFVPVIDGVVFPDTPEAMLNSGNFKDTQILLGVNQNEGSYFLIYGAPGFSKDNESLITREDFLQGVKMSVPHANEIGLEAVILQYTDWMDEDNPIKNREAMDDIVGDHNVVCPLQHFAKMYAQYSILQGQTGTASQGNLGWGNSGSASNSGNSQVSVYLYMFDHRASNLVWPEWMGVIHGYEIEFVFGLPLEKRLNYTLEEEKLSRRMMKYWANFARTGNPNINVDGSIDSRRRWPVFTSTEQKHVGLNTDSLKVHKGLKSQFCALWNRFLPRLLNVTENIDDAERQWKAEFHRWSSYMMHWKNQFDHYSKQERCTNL
Method: as §1

Carboxylic ester hydrolase, sequence (Q9N1N9 whole entry): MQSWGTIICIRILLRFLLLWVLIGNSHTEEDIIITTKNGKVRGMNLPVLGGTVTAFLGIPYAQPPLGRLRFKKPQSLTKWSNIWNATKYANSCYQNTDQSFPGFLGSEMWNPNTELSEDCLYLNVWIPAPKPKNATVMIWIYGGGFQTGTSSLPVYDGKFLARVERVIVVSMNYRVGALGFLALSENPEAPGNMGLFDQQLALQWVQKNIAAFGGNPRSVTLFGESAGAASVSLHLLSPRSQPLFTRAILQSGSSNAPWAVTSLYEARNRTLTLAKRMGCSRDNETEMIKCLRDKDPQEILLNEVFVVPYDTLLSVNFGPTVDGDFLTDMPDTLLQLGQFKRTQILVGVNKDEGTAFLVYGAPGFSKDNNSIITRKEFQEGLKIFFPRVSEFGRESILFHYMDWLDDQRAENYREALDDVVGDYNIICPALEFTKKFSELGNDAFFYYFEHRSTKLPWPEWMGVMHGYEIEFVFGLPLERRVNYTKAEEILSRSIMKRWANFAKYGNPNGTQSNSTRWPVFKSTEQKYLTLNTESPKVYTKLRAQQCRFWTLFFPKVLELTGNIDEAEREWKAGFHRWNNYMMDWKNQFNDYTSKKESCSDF

Row | SMILES | IC50 [1] [µM] | IC50 (Acetylcholinesterase) [µM]
1 | CC(=O)C1=C(C)NC(NCC(=O)Nc2ccc(C)cc2)=NC1c1ccc(C)cc1 (stereo not drawn) [2-(5-Acetyl-6-methyl-4-p-tolyl-1,4-dihydropyrimidin-2-ylamino)-N-p-tolylacetamide (5h)] | 29.4 | 7.87
2 | CC(=O)C1=C(C)NC(N)=NC1c1ccccc1 (stereo not drawn) [1-(2-Amino-6-methyl-4-phenyl-1,4-dihydropyrimidin-5-yl)ethanone (2a)] | – | 41.3
3 | CC(=O)C1=C(C)NC(NCC(=O)Nc2ccc(C)cc2)=NC1c1ccc(Cl)cc1 (stereo not drawn) [2-(5-Acetyl-4-(4-chlorophenyl)-6-methyl-1,4-dihydropyrimidin-2-ylamino)-N-p-tolylacetamide (5f)] | 26.4 | 3.08
4 | CC(=O)C1=C(C)NC(N)=NC1c1ccc(Cl)cc1 (stereo not drawn) [1-(2-Amino-4-(4-chlorophenyl)-6-methyl-1,4-dihydropyrimidin-5-yl)ethanone (2e)] | – | 68.3
5 | CC(=O)C1=C(C)NC(=S)NC1c1ccc(C)cc1 (stereo not drawn) [1-(6-Methyl-2-thioxo-4-p-tolyl-3,4-tetrahydropyrimidin-5-yl)ethanone (1d)] | – | 55.9
6 | CC(=O)C1=C(C)NC(NCC(=O)Nc2ccc(Cl)cc2)=NC1c1ccccc1 (stereo not drawn) [2-(5-Acetyl-6-methyl-4-phenyl-1,4-dihydropyrimidin-2-ylamino)-N-(4-chlorophenyl)acetamide (5b)] | 27.2 | 2.01
7 | CC(=O)C1=C(C)NC(N)=NC1c1ccc(Br)cc1 (stereo not drawn) [1-(2-Amino-4-(4-bromophenyl)-6-methyl-1,4-dihydropyrimidin-5-yl)ethanone (2b)] | – | 58
8 | CC(=O)C1=C(C)NC(SCC(=O)Nc2ccc(C)cc2)=NC1c1ccc(C)cc1 (stereo not drawn) [2-(5-Acetyl-6-methyl-4-p-tolyl-1,4-dihydropyrimidin-2-ylthio)-N-p-tolylacetamide (4h)] | 56.3 | 7.63
9 | CC(=O)C1=C(C)NC(NCC(=O)Nc2ccccc2)=NC1c1ccc(Br)cc1 (stereo not drawn) [2-(5-Acetyl-4-(4-bromophenyl)-6-methyl-1,4-dihydropyrimidin-2-ylamino)-N-phenylacetamide (5c)] | 38.5 | 12.9
10 | CC(=O)C1=C(C)NC(=S)NC1c1ccc(Cl)cc1 (stereo not drawn) [1-(4-(4-Chlorophenyl)-6-methyl-2-thioxo-3,4-tetrahydropyrimidin-5-yl)ethanone (1e)] | – | 59.9
11 | CC(=O)C1=C(C)NC(SCC(=O)Nc2ccccc2)=NC1c1ccccc1 (stereo not drawn) [2-(5-Acetyl-6-methyl-4-phenyl-1,4-dihydropyrimidin-2-ylthio)-N-phenylacetamide (4a)] | 2.37 | 0.17
12 | CC(=O)C1=C(C)NC(=S)NC1c1ccccc1 (stereo not drawn) [5-Aceto-6-methyl-4-phenyl-3,4-dihydropyrimidin-2(1H)-thione (1a)] | – | 87.6
13 | CC(=O)C1=C(C)NC(NCC(=O)Nc2ccc(C)cc2)=NC1c1ccc(Br)cc1 (stereo not drawn) [2-(5-Acetyl-4-(4-bromophenyl)-6-methyl-1,4-dihydropyrimidin-2-ylamino)-N-p-tolylacetamide (5e)] | 20.9 | 3.13
14 | CC(=O)C1=C(C)NC(=S)NC1c1ccc(OCc2ccccc2)cc1 (stereo not drawn) [1-(4-(4-(Benzyloxy)phenyl)-6-methyl-2-thioxo-3,4-tetrahydropyrimidin-5-yl)ethanone (1c)] | – | 28.1
15 | CC(=O)C1=C(C)NC(SCC(=O)Nc2ccc(Cl)cc2)=NC1c1ccccc1 (stereo not drawn) [2-((5-Acetyl-6-methyl-4-phenyl-1,4-dihydropyrimidin-2-yl)thio)-N-(4-chlorophenyl)acetamide (4b)] | 16.4 | 1.97
16 | CC(=O)C1=C(C)NC(SCC(=O)Nc2ccccc2)=NC1c1ccc(Br)cc1 (stereo not drawn) [2-(5-Acetyl-4-(4-bromophenyl)-6-methyl-1,4-dihydropyrimidin-2-ylthio)-N-phenylacetamide (4c)] | 24.5 | 8.23
17 | CC(=O)C1=C(C)NC(N)=NC1c1ccc(OCc2ccccc2)cc1 (stereo not drawn) [1-(2-Amino-4-(4-(benzyloxy)phenyl)-6-methyl-1,4-dihydropyrimidin-5-yl)ethanone (2c)] | – | 39.5
18 | CC(=O)C1=C(C)NC(=S)NC1c1ccc(Br)cc1 (stereo not drawn) [1-(4-(4-Bromophenyl)-6-methyl-2-thioxo-3,4-tetrahydropyrimidin-5-yl)ethanone (1b)] | – | 53.2
19 | CC(=O)C1=C(C)NC(SCC(=O)Nc2ccc(C)cc2)=NC1c1ccc(Cl)cc1 (stereo not drawn) [2-(5-Acetyl-4-(4-chlorophenyl)-6-methyl-1,4-dihydropyrimidin-2-ylthio)-N-p-tolylacetamide (4f)] | 50 | 1.11
20 | CC(=O)C1=C(C)NC(SCC(=O)Nc2ccc(C)cc2)=NC1c1ccc(Br)cc1 (stereo not drawn) [2-(5-Acetyl-4-(4-bromophenyl)-6-methyl-1,4-dihydropyrimidin-2-ylthio)-N-p-tolylacetamide (4e)] | 52.8 | 1.39
21 | CC(=O)C1=C(C)NC(NCC(=O)Nc2ccccc2)=NC1c1ccccc1 (stereo not drawn) [2-(5-Acetyl-6-methyl-4-phenyl-1,4-dihydropyrimidin-2-ylamino)-N-phenylacetamide (5a)] | 15 | 5.33
